“And” between values parts separate entries of the source, which are not always exact repeats. Equal entries are not always repeated. Where two headings read alike, the source gives them in different places.
Key:
SARS-CoV-2 NSP3 Mac1 [1] = biological target: T1, SARS-CoV-2 NSP3 Mac1 (Severe acute respiratory syndrome coronavirus 2, UniProt P0DTD1); format: binding; settings: for Refined occupancy: ligand occupancy after refinement (phenix.refine); for Comment (ligand modelled in the crystal structure): what was observed in density instead of the vendor structure
SARS-CoV-2 NSP3 Mac1 [2] = biological target: T1, SARS-CoV-2 NSP3 Mac1; test: biochemical; format: binding
SARS-CoV-2 NSP3 Mac1 [3] = test: Overall hit call (binding in crystallographic soaking or the HTRF-based binding assay)
Text: Supplement pnas.2212931120.sd01.xlsx, sheet "Compound Summary" | column: HIT*

[4] = PanDDA event map 1-BDC, crystal soak, Compound_concentration 100 mM, PanDDA run dmso_34 or nohits_35 per dataset
[5] = PanDDA event map, 1 minus background density correction, crystal soaking of Mac1
[6] = crystal soak, Compound_concentration 100 mM, Echo dispense 40 nl, PanDDA run dmso_34 or nohits_35 per dataset
[7] = ligand modeled in this dataset, crystal soak, Compound_concentration 100 mM
[8] = PanDDA 1-BDC of the event, compound stock 100 mM, Echo dispense volume 80 nl
[9] = crystal soak, compound stock 100 mM, Echo dispense volume 80 nl
[10] = ligand modeled in structure, compound stock 100 mM, Echo dispense volume 80 nl
[11] = HTRF ADPr-conjugated peptide displacement, read-out: IC50
[12] = HTRF ADPr-peptide displacement from SARS-CoV-2 Mac1, read-out: IC50
[13] = PanDDA 1-BDC of the event, compound stock 100 mM, Echo dispense volume 40 nl
[14] = crystal soak, compound stock 100 mM, Echo dispense volume 40 nl
[15] = PanDDA event map, crystal soak, Compound_concentration 100 mM, Echo_dispense_volume 40 nl
[16] = crystal soak, Compound_concentration 100 mM, Echo_dispense_volume 40 nl, PanDDA run (background map) dmso_34, nohits_35 or nohits_62
[17] = ligand modeled, crystal soak, Compound_concentration 100 mM, Echo_dispense_volume 40 nl
[18] = PanDDA event map background density correction, crystal soak, compound concentration 100 mM
[19] = ligand modeled in the crystal structure, crystal soak, compound concentration 100 mM
[20] = ligand modeled from this dataset, compound concentration 100 mM

SMILES	1-BDC (SARS-CoV-2 NSP3 Mac1 [1]; [4])	1-BDC (PanDDA) (SARS-CoV-2 NSP3 Mac1 [1]; [5])	PanDDA hit? (SARS-CoV-2 NSP3 Mac1 [1]; [6])	Refined occupancy (SARS-CoV-2 NSP3 Mac1 [1]; crystal soaking of Mac1)	HIT* (SARS-CoV-2 NSP3 Mac1 [3])	1-BDC (SARS-CoV-2 NSP3 Mac1 [1]; [8])	PanDDA hit? (SARS-CoV-2 NSP3 Mac1 [1]; [9])	IC50 (SARS-CoV-2 NSP3 Mac1 [2]; [11])	Ki (SARS-CoV-2 NSP3 Mac1 [2]; read-out: Ki***)	other results
O[C@H]1CCCC[C@H]1Nc1ncnc2[nH]ccc12 (relative stereo) [SRH-0015]	0.13	0.13	TRUE	26	Y	–	–	–	–	Modeled? (SARS-CoV-2 NSP3 Mac1 [1]; [7]): TRUE; IC50 (SARS-CoV-2 NSP3 Mac1 [2]; IC50, HTRF ADPr-peptide displacement from SARS-CoV-2 Mac1): 132 µM; IC50 (SARS-CoV-2 NSP3 Mac1 [2]; IC50 [µM], HTRF ADPr-conjugated peptide displacement): 132 µM; Ki (SARS-CoV-2 NSP3 Mac1 [2]; Ki*** [µM]): 115 µM
O=C(O)CC1CN(c2ncnc3[nH]c4cc(F)ccc4c23)CC2(CCC2)O1 (centres unmarked) [LL114_0024]	0.06	0.11	TRUE	22	Y	0.11	TRUE	19.7 µM	17.1 µM	Modeled? (SARS-CoV-2 NSP3 Mac1 [1]; [10]): TRUE; IC50 (SARS-CoV-2 NSP3 Mac1 [2]; [12]): 19.6 µM and 20 µM
Cl.O=C(O)C1CN(c2ncnc3[nH]c4cc(F)ccc4c23)CCO1 (centres unmarked) [LL114_0033]	0.15	0.15	TRUE	30	Y	–	–	40.4 µM	35.2 µM	1-BDC (SARS-CoV-2 NSP3 Mac1 [1]; [13]): 0.15; PanDDA hit? (SARS-CoV-2 NSP3 Mac1 [1]; [14]): TRUE; Modeled? (SARS-CoV-2 NSP3 Mac1 [1]; ligand modeled in structure, compound stock 100 mM, Echo dispense volume 40 nl): TRUE
O=C(O)C(O)C1CCCN(c2ncnc3[nH]c4cc(F)ccc4c23)C1 (centres unmarked) [LL114_0036]	0.2	0.24	TRUE	48	Y	0.24	TRUE	34.1 µM	29.7 µM	Modeled? (SARS-CoV-2 NSP3 Mac1 [1]; [10]): TRUE
O=C(O)[C@H]1[C@@H]2CN(c3ncnc4[nH]c5cc(F)ccc5c34)CC[C@@H]21 [LL114_0037]	–	–	–	–	Y	–	–	37.6 µM	32.7 µM	–
O=C(O)CCC1CN(c2ncnc3[nH]c4cc(F)ccc4c23)CCO1 (centres unmarked) [LL114_0041]	0.15	0.16	TRUE	32	Y	0.15	TRUE	69.2 µM	60.2 µM	1-BDC (SARS-CoV-2 NSP3 Mac1 [1]; [15]): 0.16; PanDDA hit? (SARS-CoV-2 NSP3 Mac1 [1]; [16]): TRUE; Modeled? (SARS-CoV-2 NSP3 Mac1 [1]; [17]): TRUE
Nc1nc(N2CC3(CCC3)C(F)(C(=O)O)C2)c2c(n1)[nH]c1cc(F)ccc12 (centres unmarked) [LL123_0016]	–	0.17	–	34	Y	–	–	24.5 µM	21.3 µM	1-BDC (SARS-CoV-2 NSP3 Mac1 [1]; [18]): 0.17; 1-BDC (SARS-CoV-2 NSP3 Mac1 [1]; [15]): 0.15; PanDDA hit? (SARS-CoV-2 NSP3 Mac1 [1]; [16]): TRUE; Modeled? (SARS-CoV-2 NSP3 Mac1 [1]; [19]): TRUE
O=C(O)C1CN(c2ncnc3[nH]c4cc(F)ccc4c23)CC12CCC2 (centres unmarked) [LL123_0020]	0.13	0.17	TRUE	34	Y	0.12 and 0.17	TRUE	13.5 µM	11.7 µM	1-BDC (SARS-CoV-2 NSP3 Mac1 [1]; [15]): 0.17; PanDDA hit? (SARS-CoV-2 NSP3 Mac1 [1]; [16]): TRUE; Modeled? (SARS-CoV-2 NSP3 Mac1 [1]; [17]): TRUE; IC50 (SARS-CoV-2 NSP3 Mac1 [2]; [12]): 14 µM
O=C(O)C1(F)CN(c2ncnc3[nH]c4cc(F)ccc4c23)CC12COC2 (centres unmarked) [LL123_0031]	–	0.08	–	16	Y	0.08	TRUE	23.2 µM	20.2 µM	Modeled? (SARS-CoV-2 NSP3 Mac1 [1]; [10]): TRUE; IC50 (SARS-CoV-2 NSP3 Mac1 [2]; [12]): 23 µM
O=C(O)C1(F)CN(c2ncnc3[nH]c4cc(F)ccc4c23)CC1C1CC1 (centres unmarked) [LL123_0032]	0.1	0.12	TRUE	24	Y	0.14	TRUE	41.8 µM	36.4 µM	1-BDC (SARS-CoV-2 NSP3 Mac1 [1]; [15]): 0.12; PanDDA hit? (SARS-CoV-2 NSP3 Mac1 [1]; [16]): TRUE; Modeled? (SARS-CoV-2 NSP3 Mac1 [1]; [17]): TRUE
O=S1(=O)CC(CNc2ncnc3[nH]c4cc(F)ccc4c23)C1 [LRH-0005]	–	0.1	–	20	Y	0.1	TRUE	–	–	1-BDC (SARS-CoV-2 NSP3 Mac1 [1]; [13]): 0.1; PanDDA hit? (SARS-CoV-2 NSP3 Mac1 [1]; [14]): TRUE; Modeled? (SARS-CoV-2 NSP3 Mac1 [1]; [10]): TRUE
O=S1(=O)CCC1CNc1ncnc2[nH]c3cc(F)ccc3c12 (centres unmarked) [LRH-0012]	0.07	0.07	TRUE	14	Y	0.06	TRUE	–	–	Modeled? (SARS-CoV-2 NSP3 Mac1 [1]; [7]): TRUE
O[C@@H]1CC[C@H](Nc2ncnc3[nH]c4cc(F)ccc4c23)C1 [LRH-0018]	0.07	0.07	TRUE	14	Y	0.07	TRUE	–	–	Modeled? (SARS-CoV-2 NSP3 Mac1 [1]; [7]): TRUE
O=C(O)[C@@H]1CCC[C@H](Nc2ncnc3[nH]c4cc(F)ccc4c23)C1 [LRH-0022]	–	0.32	–	64	Y	0.32	TRUE	–	–	1-BDC (SARS-CoV-2 NSP3 Mac1 [1]; [13]): 0.28; PanDDA hit? (SARS-CoV-2 NSP3 Mac1 [1]; [14]): TRUE; Modeled? (SARS-CoV-2 NSP3 Mac1 [1]; [10]): TRUE; Comment (ligand modelled in the crystal structure) (SARS-CoV-2 NSP3 Mac1 [1]): pyrimido-indole core only
[O-][n+]1cccc(Nc2ncnc3[nH]c4cc(F)ccc4c23)c1 [LRH-0031]	–	0.17	–	34	Y	0.17	TRUE	–	–	1-BDC (SARS-CoV-2 NSP3 Mac1 [1]; [13]): 0.18; PanDDA hit? (SARS-CoV-2 NSP3 Mac1 [1]; [14]): TRUE; Modeled? (SARS-CoV-2 NSP3 Mac1 [1]; [10]): TRUE; Comment (ligand modelled in the crystal structure) (SARS-CoV-2 NSP3 Mac1 [1]): pyrimido-indole core only
CN(c1ncnc2[nH]c3cc(F)ccc3c12)C1CCCS(=O)(=O)C1 (centres unmarked) [LRM-0010]	–	0.06	–	12	Y	0.06	TRUE	–	–	Modeled? (SARS-CoV-2 NSP3 Mac1 [1]; [10]): TRUE
CN(Cc1ccccn1)c1ncnc2[nH]c3cc(F)ccc3c12 [LRM-0028]	–	0.15	–	30	Y	0.15	TRUE	–	–	1-BDC (SARS-CoV-2 NSP3 Mac1 [1]; [13]): 0.14; PanDDA hit? (SARS-CoV-2 NSP3 Mac1 [1]; [14]): TRUE; Modeled? (SARS-CoV-2 NSP3 Mac1 [1]; [10]): TRUE
O=S1(=O)CC(CNc2ncnc3[nH]ccc23)C1 [SRH-0005]	–	–	–	18	Y	–	–	–	–	1-BDC (SARS-CoV-2 NSP3 Mac1 [1]; [5]): 0.09; Modeled? (SARS-CoV-2 NSP3 Mac1 [1]; [20]): TRUE
O=S1(=O)CCCC(Nc2ncnc3[nH]ccc23)C1 (centres unmarked) [SRH-0010]	0.13	0.13	TRUE	26	Y	–	–	–	–	Modeled? (SARS-CoV-2 NSP3 Mac1 [1]; [7]): TRUE
O[C@@H]1CC[C@H](Nc2ncnc3[nH]ccc23)C1 [SRH-0018]	–	–	–	14	Y	–	–	–	–	1-BDC (SARS-CoV-2 NSP3 Mac1 [1]; [5]): 0.07; Modeled? (SARS-CoV-2 NSP3 Mac1 [1]; [20]): TRUE
c1ccc(CNc2ncnc3[nH]ccc23)nc1 [SRH-0028]	0.09	0.09	TRUE	18	Y	–	–	–	–	Modeled? (SARS-CoV-2 NSP3 Mac1 [1]; [7]): TRUE
CCC(=O)Nc1nc(C)c(S(=O)(=O)Nc2cccc(C#N)c2)s1 [Z0611]	–	–	–	–	Y	–	–	143 µM	124 µM	–
O=C(O)CC(NC(=O)c1cc(F)cc2[nH]cnc12)c1ccc(Br)cc1 (centres unmarked) [Z3722]	–	–	–	–	Y	–	–	26.2 µM	22.8 µM	–
O=C(O)c1csc(CCNC(=O)c2cc3[nH]cnc3cc2F)n1 [Z5740]	–	0.1	–	20	Y	–	–	–	–	1-BDC (SARS-CoV-2 NSP3 Mac1 [1]; [18]): 0.1; Modeled? (SARS-CoV-2 NSP3 Mac1 [1]; [19]): TRUE
CNc1cnc(C(=O)N2CC(c3noc(O)n3)C2)cn1.O=C(O)C(F)(F)F [Z6567]	–	0.31	–	62	Y	–	–	–	–	1-BDC (SARS-CoV-2 NSP3 Mac1 [1]; [18]): 0.31; Modeled? (SARS-CoV-2 NSP3 Mac1 [1]; [19]): TRUE
O=C(NC1C=CC(C(=O)O)C1)c1ncnc2sccc12 (centres unmarked) [Z6645]	–	–	–	–	Y	–	–	69.4 µM	60.4 µM	–
CCNc1ncc(C(=O)NCCn2cnc(C(=O)O)c2)s1 [Z6684]	–	0.1	–	20	Y	–	–	–	–	1-BDC (SARS-CoV-2 NSP3 Mac1 [1]; [15]): 0.1; PanDDA hit? (SARS-CoV-2 NSP3 Mac1 [1]; [16]): TRUE; Modeled? (SARS-CoV-2 NSP3 Mac1 [1]; [17]): TRUE
Cn1ncc2c(=O)[nH]c(CCC(=O)N3CC=C(C(=O)O)C3)nc21 [Z6689]	–	0.17	–	34	Y	–	–	–	–	1-BDC (SARS-CoV-2 NSP3 Mac1 [1]; [18]): 0.17; Modeled? (SARS-CoV-2 NSP3 Mac1 [1]; [19]): TRUE
Cn1ncc2ncnc(NS(=O)(=O)Cc3ccc(CC#N)cc3)c21 [Z6742]	–	–	–	–	Y	–	–	42.4 µM	36.9 µM	–
Cn1ccn2c(CCNC(=O)[C@H]3C[C@H]3C(=O)O)nnc2c1=O [Z6744]	–	0.3	–	60	Y	–	–	–	–	1-BDC (SARS-CoV-2 NSP3 Mac1 [1]; [18]): 0.3; Modeled? (SARS-CoV-2 NSP3 Mac1 [1]; [19]): TRUE
